Reference: ChEMBL document CHEMBL1201862, “PubChem BioAssay data set” (2004)
The source made the active and inactive calls. Rule as the data show it, for most assays here: actives have a measured EC50 and inactives only a lower limit.

Columns and labels:
HeLa = assay: Cytotoxicity counterscreen assay for transcriptional activators of heat shock protein 70 (Hsp70). [Related pubchem assays: 1203, 1252 ]; assay type: functional; conditions: Homo sapiens;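 also: cells exposed to compound for 16 hours before readout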
[1] = Luminescence Cell-Based Dose Response to Identify Activators of Luciferase Translation or Activity in H4-C Neuroglioblastoma Cells. [Related pubchem assays: 1829 (Project Summary), 1814 (Primary HTS)]; assay type: functional
[2] = target: T1, Zinc finger protein mex-5 (Caenorhabditis elegans, UniProt Q9XUB2); assay: potency of MEX-5 RNA-binding blockers – biochemical, C. elegans, fluorescence polarization, dose response (AID 1960)
T1 sequence (Q9XUB2 whole entry): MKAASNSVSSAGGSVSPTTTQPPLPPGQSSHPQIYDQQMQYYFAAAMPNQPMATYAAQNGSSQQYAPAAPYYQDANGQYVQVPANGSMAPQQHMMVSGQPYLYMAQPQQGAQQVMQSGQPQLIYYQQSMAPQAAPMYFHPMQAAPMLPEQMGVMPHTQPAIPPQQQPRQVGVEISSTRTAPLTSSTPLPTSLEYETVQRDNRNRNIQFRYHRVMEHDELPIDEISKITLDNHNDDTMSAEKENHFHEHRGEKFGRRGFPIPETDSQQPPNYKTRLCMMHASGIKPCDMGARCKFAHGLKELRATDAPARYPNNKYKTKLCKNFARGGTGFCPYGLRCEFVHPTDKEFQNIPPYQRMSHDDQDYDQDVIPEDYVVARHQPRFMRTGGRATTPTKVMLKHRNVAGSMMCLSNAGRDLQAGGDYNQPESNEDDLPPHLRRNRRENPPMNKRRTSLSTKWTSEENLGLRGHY

[3] = target: Protein-tyrosine kinase 2-beta (Homo sapiens, UniProt Q14289);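 also: potency of inhibitors of PYK2 kinase phosphorylation of poly-GT substrate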
Chain of Protein-tyrosine kinase 2-beta (Q14289 whole entry): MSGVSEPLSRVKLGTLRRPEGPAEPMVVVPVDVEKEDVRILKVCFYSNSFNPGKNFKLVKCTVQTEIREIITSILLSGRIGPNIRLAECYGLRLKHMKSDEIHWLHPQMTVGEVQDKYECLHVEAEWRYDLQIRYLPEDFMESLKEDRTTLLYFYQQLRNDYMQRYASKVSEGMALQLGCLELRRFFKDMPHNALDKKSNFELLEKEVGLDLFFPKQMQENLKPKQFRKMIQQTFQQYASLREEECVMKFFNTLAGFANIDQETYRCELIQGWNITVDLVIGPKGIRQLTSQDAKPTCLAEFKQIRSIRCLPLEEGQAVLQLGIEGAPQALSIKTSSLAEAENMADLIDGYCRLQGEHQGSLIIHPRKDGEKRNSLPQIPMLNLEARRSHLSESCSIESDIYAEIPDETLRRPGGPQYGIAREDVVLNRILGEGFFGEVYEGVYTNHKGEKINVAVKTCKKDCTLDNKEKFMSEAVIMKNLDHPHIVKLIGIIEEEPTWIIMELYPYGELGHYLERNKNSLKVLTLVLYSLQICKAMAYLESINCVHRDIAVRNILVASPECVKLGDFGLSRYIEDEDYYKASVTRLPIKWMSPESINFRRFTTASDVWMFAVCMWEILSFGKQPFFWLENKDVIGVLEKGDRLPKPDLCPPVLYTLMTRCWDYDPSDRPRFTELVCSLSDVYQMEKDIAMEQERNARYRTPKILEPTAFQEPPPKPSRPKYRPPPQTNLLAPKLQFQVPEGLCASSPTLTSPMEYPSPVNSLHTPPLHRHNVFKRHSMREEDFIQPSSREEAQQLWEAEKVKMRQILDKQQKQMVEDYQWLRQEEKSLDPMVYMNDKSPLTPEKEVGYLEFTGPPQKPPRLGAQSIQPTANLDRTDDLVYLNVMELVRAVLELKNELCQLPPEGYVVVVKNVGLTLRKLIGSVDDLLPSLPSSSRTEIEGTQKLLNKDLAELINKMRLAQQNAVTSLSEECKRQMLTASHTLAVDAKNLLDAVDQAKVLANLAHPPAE

[4] = Luminescence Cell-Based Dose Response to Identify Activators of 5'UTR Stem-Loop Driven Prion Protein mRNA Translation in H4-C Neuroglioblastoma Cells. [Related pubchem assays: 1829 (Project Summary), 1814 (Primary HTS)]; assay type: functional
[5] = target: T2, RNA-binding protein pos-1 (Caenorhabditis elegans, UniProt G5EF15); assay: disruptors of C. elegans POS-1 RNA interaction – biochemical, fluorescence polarization, dose response (AID 1964);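 also: purified POS-1 fused to maltose binding protein made in E. coli; potency of compounds blocking POS-1 binding to fluorescent RNA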
T2 sequence (G5EF15 whole entry): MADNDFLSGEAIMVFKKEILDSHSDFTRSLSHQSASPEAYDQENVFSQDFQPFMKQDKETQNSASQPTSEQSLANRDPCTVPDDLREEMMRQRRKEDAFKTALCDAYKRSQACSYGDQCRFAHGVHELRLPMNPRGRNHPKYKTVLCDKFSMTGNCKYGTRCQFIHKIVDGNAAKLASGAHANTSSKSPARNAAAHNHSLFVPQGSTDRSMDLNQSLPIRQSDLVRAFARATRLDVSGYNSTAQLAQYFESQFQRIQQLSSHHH

[6] = Luminescence Cell-Based Dose Response HTS to Identify Activators of Luciferase Translation or Activity in H4 […] Cells. [Related pubchem assays: 1829 (Project Summary), 1814 (Primary HTS)]; assay type: functional
H4 = assay: Luminescence Cell-Based Dose Response HTS to Identify Activators of 5'UTR Stem-Loop Driven Prion Protein mRNA Translation in H4 Neuroglioblastoma Cells. [Related pubchem assays: 1829 (Project Summary), 1814 (Primary HTS)]; assay type: functional; conditions: Homo sapiens
[7] = Luminescence Cell-Based Dose Confirmation to Identify Activators of 5'UTR Stem-Loop Driven Alpha-Synuclein mRNA Translation in H4 Neuroglioblastoma Cells. [Related pubchem assays: 1829 (Project Summary), 1814 (Primary HTS)]; assay type: functional
Estrogen receptor beta = Estrogen receptor beta (Homo sapiens, UniProt Q92731);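 also: recombinant ER-beta bound to coactivator SRC1 peptide in presence of estradiol agonist; inhibitors block coactivator peptide binding and lower the FRET signal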
Chain of Estrogen receptor beta (Q92731 whole entry): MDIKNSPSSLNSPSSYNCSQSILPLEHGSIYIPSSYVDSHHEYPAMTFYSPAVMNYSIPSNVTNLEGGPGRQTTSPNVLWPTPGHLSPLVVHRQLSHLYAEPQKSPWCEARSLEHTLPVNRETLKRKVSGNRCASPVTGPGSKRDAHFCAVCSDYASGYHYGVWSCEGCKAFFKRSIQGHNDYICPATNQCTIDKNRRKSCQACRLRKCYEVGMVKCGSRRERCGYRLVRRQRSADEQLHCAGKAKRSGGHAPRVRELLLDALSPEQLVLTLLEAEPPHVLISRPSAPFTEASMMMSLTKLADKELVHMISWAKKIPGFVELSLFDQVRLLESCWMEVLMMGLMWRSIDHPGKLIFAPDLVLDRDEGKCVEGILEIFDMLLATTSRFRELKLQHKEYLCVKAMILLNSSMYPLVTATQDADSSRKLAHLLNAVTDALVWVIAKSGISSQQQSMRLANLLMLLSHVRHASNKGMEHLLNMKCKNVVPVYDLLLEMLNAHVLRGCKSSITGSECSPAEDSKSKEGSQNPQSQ

[8] = target: Neuropeptide Y receptor type 1 (Homo sapiens, UniProt P25929); assay: IC50 of human NPY-Y1 blockers – cell-based, dose response (AID 1277); assay type: functional
Chain of Neuropeptide Y receptor type 1 (P25929 whole entry): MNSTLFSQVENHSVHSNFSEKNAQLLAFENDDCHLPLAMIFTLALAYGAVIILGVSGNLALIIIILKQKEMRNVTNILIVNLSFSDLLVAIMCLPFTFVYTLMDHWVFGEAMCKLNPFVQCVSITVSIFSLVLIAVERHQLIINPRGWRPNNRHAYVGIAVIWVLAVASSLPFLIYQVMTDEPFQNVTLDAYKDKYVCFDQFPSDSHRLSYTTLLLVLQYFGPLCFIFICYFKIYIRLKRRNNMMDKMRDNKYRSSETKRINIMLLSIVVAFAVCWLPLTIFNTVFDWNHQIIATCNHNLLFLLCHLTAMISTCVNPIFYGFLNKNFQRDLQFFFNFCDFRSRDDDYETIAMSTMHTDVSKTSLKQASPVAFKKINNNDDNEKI

[9] = target: Neuropeptide Y receptor type 2 (Homo sapiens, UniProt P49146); assay: IC50 for human NPY-Y2 blockade – cell-based, counter-screen for NPY-Y1 antagonist project, dose response (AID 1278); assay type: functional
Chain of Neuropeptide Y receptor type 2 (P49146 whole entry): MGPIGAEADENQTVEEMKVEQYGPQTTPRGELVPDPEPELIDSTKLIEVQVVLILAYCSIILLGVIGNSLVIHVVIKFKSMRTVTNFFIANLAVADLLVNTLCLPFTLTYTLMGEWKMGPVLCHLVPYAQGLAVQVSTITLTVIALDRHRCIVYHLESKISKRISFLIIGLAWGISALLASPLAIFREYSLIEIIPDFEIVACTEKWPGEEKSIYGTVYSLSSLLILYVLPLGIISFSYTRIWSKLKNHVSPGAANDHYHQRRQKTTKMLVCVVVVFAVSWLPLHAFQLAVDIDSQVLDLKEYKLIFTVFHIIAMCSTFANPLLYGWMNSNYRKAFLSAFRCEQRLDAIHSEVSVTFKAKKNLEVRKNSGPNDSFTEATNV

BJ [10] = assay: cells; assay type: functional, cell-based; conditions: Homo sapiens
[11] = Luminescence Cell-Based Dose Response HTS to Identify Inhibitors of 5'UTR Stem-Loop Driven Prion Protein mRNA Translation in H4 Neuroglioblastoma Cells. [Related pubchem assays: 1827 (Project Summary), 1813 (Primary HTS)]; assay type: functional
Estrogen receptor = target: T3, Estrogen receptor (Homo sapiens, UniProt P03372);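 also: potency for inhibiting coactivator peptide recruitment to the receptor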
T3 sequence (P03372 whole entry): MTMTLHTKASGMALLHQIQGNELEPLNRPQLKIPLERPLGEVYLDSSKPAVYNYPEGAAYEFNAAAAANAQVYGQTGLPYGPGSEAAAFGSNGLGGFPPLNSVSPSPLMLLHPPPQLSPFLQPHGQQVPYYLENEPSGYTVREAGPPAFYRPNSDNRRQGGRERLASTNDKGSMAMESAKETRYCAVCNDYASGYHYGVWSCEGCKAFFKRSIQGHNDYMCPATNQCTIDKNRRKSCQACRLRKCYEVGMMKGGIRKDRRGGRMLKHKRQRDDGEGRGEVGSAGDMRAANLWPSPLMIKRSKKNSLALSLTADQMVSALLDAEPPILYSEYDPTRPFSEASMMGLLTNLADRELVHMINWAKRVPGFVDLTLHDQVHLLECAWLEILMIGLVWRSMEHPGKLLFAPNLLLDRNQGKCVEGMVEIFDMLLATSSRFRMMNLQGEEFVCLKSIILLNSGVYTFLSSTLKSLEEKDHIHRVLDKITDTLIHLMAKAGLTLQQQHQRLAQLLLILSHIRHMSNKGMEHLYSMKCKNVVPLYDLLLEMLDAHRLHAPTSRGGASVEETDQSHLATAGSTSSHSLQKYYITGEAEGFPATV

[12] = target: Mothers against decapentaplegic homolog 3 (Homo sapiens, UniProt P84022); assay: inhibitors of SMAD-driven TGF-beta signaling – dose response (AID 715); assay type: functional
Chain of Mothers against decapentaplegic homolog 3 (P84022 whole entry): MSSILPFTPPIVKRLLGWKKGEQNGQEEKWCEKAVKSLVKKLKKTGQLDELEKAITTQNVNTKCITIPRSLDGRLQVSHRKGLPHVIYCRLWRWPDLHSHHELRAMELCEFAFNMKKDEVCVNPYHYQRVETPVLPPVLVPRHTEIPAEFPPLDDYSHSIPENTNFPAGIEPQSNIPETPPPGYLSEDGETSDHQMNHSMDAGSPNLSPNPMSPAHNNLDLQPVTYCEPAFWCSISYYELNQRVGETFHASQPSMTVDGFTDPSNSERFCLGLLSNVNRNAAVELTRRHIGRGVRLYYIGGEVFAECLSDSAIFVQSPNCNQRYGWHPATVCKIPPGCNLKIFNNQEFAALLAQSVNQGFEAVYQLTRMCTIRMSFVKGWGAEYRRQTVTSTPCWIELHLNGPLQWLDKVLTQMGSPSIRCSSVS

[13] = alpha-synuclein stem-loop luciferase translation blockers – H4 neuroglioma cells, luminescence, confirmation (AID 1988); assay type: functional, cell-based
BJ [14] = assay: BJ-TERT-LT-ST fibroblast viability loss – cell-based, RAS-independent, luminescence, dose response (AID 1935); assay type: functional; conditions: Homo sapiens;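 also: BJ fibroblasts immortalized with TERT plus LT and ST oncogenes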
[15] = luciferase reporter signal suppression in cells – H4 neuroglioma cells, luminescence, dose response (AID 1990); assay type: functional, cell-based
[16] = test system: Streptococcus sp. 'group A'; assay: Streptococcus pyogenes SK(-)GAS viability under kanamycin – luminescence, BacTiterGlo, confirmation, counter-screen for streptokinase expression inhibitor project, dose response (AID 1900); assay type: functional, organism-based
Streptococcus = assay: GAS UMAA2166 growth inhibition – luminescence, BacTiterGlo, counter-screen for streptokinase expression inhibitor project, dose response (AID 1915); assay type: functional, organism-based;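 also: potency for reduction of bacterial viability or growth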
BJ [17] = assay: growth inhibition of engineered Ras-driven BJ cells – cell-based, alamar blue fluorescence, cherrypicked samples, dose response (AID 2631); assay type: functional; conditions: Homo sapiens;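 also: confirmatory dose-response assay in RAS-dependent BJ fibroblasts engineered with TERT, LT and ST, with cytotoxicity read by fluorescence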
Streptokinase A = target: T4, Streptokinase A (Streptococcus pyogenes serotype M1, UniProt P10520); assay: viability-normalized secreted streptokinase activity reduction – plasminogen activation absorbance, OD405, dose response (AID 1914); assay type: functional, Streptococcus pyogenes M1 GAS;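 also: secreted streptokinase activity via plasminogen activation per viability signal from cell pellet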
T4 sequence (P10520 whole entry): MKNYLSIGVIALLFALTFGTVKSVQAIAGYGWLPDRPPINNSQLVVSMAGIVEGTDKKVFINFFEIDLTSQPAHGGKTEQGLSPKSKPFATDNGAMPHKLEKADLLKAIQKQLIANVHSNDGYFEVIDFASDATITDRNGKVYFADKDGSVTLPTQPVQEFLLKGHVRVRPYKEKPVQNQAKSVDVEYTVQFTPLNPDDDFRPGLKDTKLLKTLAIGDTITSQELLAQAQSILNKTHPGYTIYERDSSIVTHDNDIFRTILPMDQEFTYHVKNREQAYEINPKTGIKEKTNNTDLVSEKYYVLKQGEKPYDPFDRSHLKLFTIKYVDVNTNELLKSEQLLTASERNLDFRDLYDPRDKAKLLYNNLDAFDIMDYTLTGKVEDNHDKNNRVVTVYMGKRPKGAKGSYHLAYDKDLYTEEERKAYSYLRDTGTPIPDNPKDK

[18] = DRD fibroblast viability loss – cell-based, non-viral oncogenic, luminescence, dose response (AID 1934); assay type: functional; conditions: Homo sapiens
Bcl-2-like protein 10 = target: T5, Bcl-2-like protein 10 (Homo sapiens, UniProt Q9HD36); assay: Concentration-response of Bcl-B inhibitors by biochemical FP with TR3 (AID 1243); assay type: functional
T5 sequence (Q9HD36 whole entry): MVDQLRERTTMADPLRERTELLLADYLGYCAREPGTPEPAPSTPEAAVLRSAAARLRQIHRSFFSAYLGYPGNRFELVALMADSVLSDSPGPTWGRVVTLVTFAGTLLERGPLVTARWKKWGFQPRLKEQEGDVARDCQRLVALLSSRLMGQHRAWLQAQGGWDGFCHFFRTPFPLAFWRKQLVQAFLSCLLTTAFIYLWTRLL

In the case of `Cn1c(CCN2CCOCC2)nc2cc(NC(=O)COc3ccc(Cl)cc3)ccc21`, the CC50 (HeLa) is reported as > 99 µM (not active).

For `CCc1c(C)nc(SCC(=O)c2cccs2)c(C#N)c1C`, the EC50 [1] was 0.302 µM (active), the EC50 [2] was 36.7 µM (inconclusive) and the IC50 [3] was > 69.5 µM (not active). For the same compound, the EC50 [4] was 0.332 µM (active), the EC50 [5] was 11.5 µM (inconclusive) and the EC50 [6] was < 0.1 µM (inconclusive). For the same compound, the EC50 (H4) was 0.149 µM (active), the EC50 [7] was 0.552 µM (active) and the IC50 (Estrogen receptor beta) was > 50 µM (not active).

With `Cc1nn(-c2ccccc2)c2sc(C(=O)O)cc12` the IC50 [8] was > 35 µM (not active) and the IC50 [9] was > 35 µM (not active).

For `CCOC(=O)c1c2c(n(C)c1COC)C(=O)C(=O)c1ccc(Br)cc1-2`, the EC50 (BJ [10]) was 3.08 µM (active), the EC50 [11] was 5.16 µM (active) and the IC50 (Estrogen receptor) was 8.87 µM (active). The IC50 [12] was 0.771 µM (active), the EC50 [13] was 1.44 µM (active) and the EC50 (BJ [14]) was 1.08 µM (inconclusive). For the same compound, the EC50 [15] was 4.87 µM (active), the EC50 [16] was 1.13 µM (active) and the EC50 (Streptococcus) was 24.3 µM (active). The EC50 (BJ [17]) was 0.562 µM (active), the EC50 (Streptokinase A) was > 150 µM (not active) and the EC50 [18] was 2.36 µM (active).

For `O=C1C=CC(=O)C(/C(=C/NCc2ccccc2)[N+](=O)[O-])=C1`, the EC50 (Bcl-2-like protein 10) was 5.7 µM (active).
